Test results as given in patent US20100240040A1, “METHOD FOR SCREENING FOR SELECTIVE MODULATOR OF THE NF-KB PATHWAY ACTIVATION” (INSTITUT PASTEUR, priority 2007, published 2010).
pKd: −log10 of the molar value.

What was measured:
[1] = target: T1, CC2-LZ dimer (Biot-CC2-LZ/His-CC2-LZ) (Mus musculus, UniProt O88522); assay: HTRF assay, CC2-LZ dimerization induced by ubiquitin binding; conditions: added to Biot-CC2-LZ/His-CC2-LZ mixture at nM concentration
T1 construct: made in house; Biot-CC2-LZ by chemical synthesis
T1 sequence (O88522 with tags, fused parts or gaps, one chain of several): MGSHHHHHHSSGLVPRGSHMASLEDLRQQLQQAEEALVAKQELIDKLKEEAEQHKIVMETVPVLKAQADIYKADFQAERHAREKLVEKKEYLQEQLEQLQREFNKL
Source text: (§1) The Homogeneous Time Resolved Fluorescence (HTRF®) assay reagents anti-(His)6 monoclonal antibody labeled with XL665 (MABHis6-XL) and streptavidin-Europium cryptate (streptavidin-EuK) were purchased from CIS-Bio. The His-CC2-LZ peptide (SEQ ID NO: 30 and 31) was purified as described in Agou et al., 2004a and the biotin tagged CC2-LZ peptide (SEQ ID NO: 28 and 29) was chemically synthezised as described in Wyler et al., 2007.
All measurements of fluorescence resonance energy transfer (FRET) were performed using the microplate reader Mithras LB 940 (Berthold Technologies). HTRF® principle
In HTRF experiments, the pure His-CC2-LZ protein was labeled by anti-His-XL665 mAb and biot-CC2-LZ was labeled by streptavidin-EuK. […] Upon excitation of Europium cryptate at 320 nm, FRET occurs between these two fluorophores, and XL665 re-emits a specific long-lived fluorescence at 665 nm.
All experiments were carried out in a black microplate Greiner (200 μl) at 25° C. The excitation wavelength was 320 nm and the fluorescence emissions were measured at 620 nm and at 665 nm to normalize the specific signal. Fluorescence emission was recorded at both wavelengths after an 50 μs delay, which reduces background noise introduced by the media and the free acceptor molecules. The FRET signal is calculated using the following equation: […]

Biot-CC2-LZ = target: T2, Biot-CC2-LZ (Mus musculus, UniProt O88522); assay: HTRF assay, complex with Biot-CC2-LZ (negative and positive controls); type: binding; conditions: each subunit of CC2-LZ at nM concentration, no ubiquitin
T2 construct: made in house; host or cells: chemical synthesis
Source text: as §1
In HTRF experiments, the pure His-CC2-LZ protein was labeled by anti-His-XL665 mAb and biot-CC2-LZ was labeled by streptavidin-EuK. Dimerization of His-CC2-LZ and Biot-CC2-LZ leads the donor (Steptavidin-EuK) and the acceptor (anti-His-XL665) into close proximity. Upon excitation of Europium cryptate at 320 nm, FRET occurs between these two fluorophores, and XL665 re-emits a specific long-lived fluorescence at 665 nm.
All experiments were carried out in a black microplate Greiner (200 μl) at 25° C. The excitation wavelength was 320 nm and the fluorescence emissions were measured at 620 nm and at 665 nm to normalize the specific signal. Fluorescence emission was recorded at both wavelengths after an 50 μs delay, which reduces background noise introduced by the media and the free acceptor molecules. The FRET signal is calculated using the following equation:
ΔF=[(R−Rneg)/Rneg]*100 (1) […]

CC2-LZ = CC2-LZ (Mus musculus, UniProt O88522); assay: Affinity of CC2-LZ dimerization; type: binding
Sequence of CC2-LZ (O88522 250-339 limits assumed): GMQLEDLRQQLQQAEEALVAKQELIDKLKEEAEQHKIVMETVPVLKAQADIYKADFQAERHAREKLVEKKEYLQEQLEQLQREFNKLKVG

## GST: GST protein alone, control
[1]
  FRET signal (in words): no FRET signal was detected

## LEDLRQQLQQAEEALVAKQELIDKLKEEAEQHKIVMETVPVLKAQADIYKADFQAERHAREKLVEKKEYLQEQLEQLQREFNKL [CC2-LZ]
Biot-CC2-LZ
  FRET signal (in words): no FRET signal was observed
CC2-LZ
  pKd: 4.66
